Experimental data as given in ChEMBL document CHEMBL1149722, “Alkaloids from Psychotria oleoides with activity on growth hormone release” (J Nat Prod, 1992).
Active and inactive are the calls of the source. The rule behind the calls is not given here.

Species on record: Rattus norvegicus
Assay: Antagonist activity at SRIF in rat pituitary culture assessed as effect on growth hormone secretion
Type: functional

CN1CC[C@]2(c3cccc4c3C[C@H]3N(C)CC[C@@]45[C@@H]4Nc6c([C@]78CCN(C)[C@H]7Nc7ccccc78)cccc6[C@]35CCN4C)c3ccccc3N[C@H]12
Activity: Active
